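Step 1: Grow cells in 96-well plates. Step 2: Expose to compound for 48 hours at 5 concentrations. Step 3: Interpolate endpoints linearly; if unreached, use highest concentration. TGI denotes the concentration required for complete inhibition of growth.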
Experiments:
Test in all cases: inhibition of tumour cell growth, NCI panel, 48 h
786-0 renal = test system: 786-0 renal
A549 NSCLC = test system: A549 NSCLC
COLO 205 colon = test system: COLO 205 colon
EKVX NSCLC = test system: EKVX NSCLC
HCT-116 colon = test system: HCT-116 colon
HL-60(TB) leukemia = test system: HL-60(TB) leukemia
HS 578T breast = test system: HS 578T breast
IGROV1 ovarian = test system: IGROV1 ovarian
K-562 leukemia = test system: K-562 leukemia
M14 melanoma = test system: M14 melanoma
NCI-H23 lung = test system: NCI-H23 lung
UO-31 renal = test system: UO-31 renal
RXF 393 renal = test system: RXF 393 renal
MDA-MB-231 breast = test system: MDA-MB-231 breast

Row | Compound | TGI (786-0 renal) | TGI (A549 NSCLC) | TGI (COLO 205 colon) | TGI (EKVX NSCLC) | TGI (HCT-116 colon) | TGI (HL-60(TB) leukemia) | TGI (HS 578T breast) | TGI (IGROV1 ovarian) | TGI (K-562 leukemia) | TGI (M14 melanoma) | TGI (NCI-H23 lung) | TGI (UO-31 renal) | TGI (RXF 393 renal) | TGI (MDA-MB-231 breast)
1 | COc1cc(S(=O)(=O)Nc2ccc(-c3csc(N4C(=O)C(C)SC4c4ccccc4O)n3)cc2)ccc1Cl (stereo not given) | > 100 µM | > 100 µM | 57 µM | > 100 µM | > 100 µM | 56.4 µM | 90.4 µM | > 100 µM | > 100 µM | > 100 µM | > 100 µM | > 100 µM | – | –
2 | CCn1c(-c2ccccc2)nc2c1C(=O)c1ccccc1C2=O | > 100 µM | > 100 µM | 91.1 µM | – | 63.6 µM | > 100 µM | > 100 µM | 79.8 µM | > 100 µM | 54 µM | > 100 µM | – | 50.9 µM | –
3 | O=C1N(CN2CCOCC2)CN(CN2CCOCC2)C(=O)N1Cc1ccccc1 | 71.8 µM | > 100 µM | 36.1 µM | > 100 µM | 54.4 µM | – | – | 64.9 µM | 51.4 µM | 33.3 µM | 38.9 µM | 68.6 µM | 35.7 µM | 69.6 µM
4 | Cn1c(=O)c2nc3nnc(C#N)c(N)n3c2n(C)c1=O | > 100 µM | > 100 µM | > 100 µM | > 100 µM | > 100 µM | > 100 µM | – | > 100 µM | > 100 µM | > 100 µM | – | > 100 µM | > 100 µM | > 100 µM
5 | COP(=O)(OC)C(O)/C=C/c1ccco1 (stereo not given) | > 100 µM | > 100 µM | > 100 µM | > 100 µM | > 100 µM | > 100 µM | > 100 µM | > 100 µM | > 100 µM | > 100 µM | > 100 µM | > 100 µM | > 100 µM | –
6 | CC1(C)O[C@H]2[C@@H]3N=C(c4ccccc4)O[C@@H]3C=C[C@H]2O1 | > 100 µM | > 100 µM | > 100 µM | > 100 µM | > 100 µM | > 100 µM | – | > 100 µM | > 100 µM | > 100 µM | > 100 µM | > 100 µM | – | > 100 µM
7 | CNC(=O)c1n[nH]n(Cc2ccccc2)c1=S | > 100 µM | > 100 µM | > 100 µM | > 100 µM | > 100 µM | – | – | > 100 µM | > 100 µM | > 100 µM | > 100 µM | > 100 µM | > 100 µM | > 100 µM
8 | C[N+](C)(C)C1(C(=O)[O-])CC1 | > 100 µM | > 100 µM | – | > 100 µM | > 100 µM | > 100 µM | > 100 µM | > 100 µM | > 100 µM | > 100 µM | > 100 µM | – | > 100 µM | –
9 | Cc1nc2c(n1CCC(C)C)C(=O)c1ccccc1C2=O | > 100 µM | > 100 µM | 30.8 µM | 92 µM | 22.6 µM | 28.1 µM | – | 58.9 µM | 69.1 µM | 38 µM | 44.9 µM | 86.7 µM | 79.7 µM | –
10 | C[C@@H]1OC(=O)C[C@H]2CC(=O)N(CCC3CN(S(=O)(=O)C(F)(F)F)c4ccc(Cc5ccc6c(c5)C(CCN5C[C@H]7[C@@H](CC(=O)O[C@H]7C)CC5=O)CN6S(=O)(=O)C(F)(F)F)cc43)C[C@@H]21 (stereo not given in full) | > 100 µM | > 100 µM | > 100 µM | > 100 µM | > 100 µM | – | – | – | > 100 µM | > 100 µM | > 100 µM | > 100 µM | > 100 µM | > 100 µM
11 | Cc1ccc(NC(=O)C(=O)C2NC(=S)NC2=O)c([N+](=O)[O-])c1 (stereo not given) | > 100 µM | > 100 µM | > 100 µM | > 100 µM | > 100 µM | > 100 µM | – | > 100 µM | > 100 µM | > 100 µM | > 100 µM | > 100 µM | > 100 µM | –
12 | COC(=O)c1cc(-c2ccc(-c3ccc(O)cc3)cc2)cc(-c2ccc(-c3ccc(O)cc3)cc2)c1 | 18.9 µM | 20.9 µM | 31 µM | 25.2 µM | 17.9 µM | – | – | 21.1 µM | 17.6 µM | 30.5 µM | 21 µM | 23.6 µM | 20.9 µM | 71.3 µM
13 | C[N+](C)(C)Cc1c(CC#N)[nH]c2ccccc12 | > 100 µM | > 100 µM | > 100 µM | > 100 µM | > 100 µM | > 100 µM | – | > 100 µM | > 100 µM | > 100 µM | > 100 µM | > 100 µM | > 100 µM | –
14 | C=CCOC(=O)CCCCCCCCCCCCCCCOC(=O)c1c(CCC[C@@H](C)O[Si](C)(C)C(C)(C)C)nc(=O)n2c1CC[C@H]2CC1(CC/C=C\[C@H](CC)O[Si](C(C)C)(C(C)C)C(C)C)OCCO1 | 77.2 µM | > 100 µM | > 100 µM | > 100 µM | > 100 µM | – | – | – | – | > 100 µM | > 100 µM | 61.3 µM | – | 54.3 µM
15 | CC(=O)OC1(C#N)CC2OC1C1C2N1C(=O)OC(C)(C)C (stereo not given) | > 100 µM | > 100 µM | > 100 µM | > 100 µM | > 100 µM | > 100 µM | – | > 100 µM | > 100 µM | > 100 µM | > 100 µM | > 100 µM | > 100 µM | –
